Measured values reported in patent US10206400B2, “Insecticidal compounds based on isoxazoline derivatives” (Syngenta Crop Protection LLC, priority 2009, dated 2019).

Columns and labels:
Type in all cases: in vivo
[1] = test system: Spodoptera littoralis; experiment: Spodoptera littoralis (Egyptian cotton leafworm) leaf disc spray test; settings: foliar, 72 h, 200 ppm spray on cotton leaf discs, L1 larvae, mortality, feeding behavior, growth regulation 3 days after treatment
Source text: Cotton leaf discs were placed on agar in a 24-well microtiter plate and sprayed with test solutions at an application rate of 200 ppm. After drying, the leaf discs were infested with 5 L1 larvae. The samples were checked for mortality, feeding behavior, and growth regulation 3 days after treatment (DAT).

[2] = test system: Heliothis virescens; experiment: Heliothis virescens (tobacco budworm) egg/artificial diet test; settings: 96 h, 200 ppm (concentration in well 18 ppm), eggs 0-24 h old on artificial diet, 4 days, egg mortality, larval mortality, growth regulation
Experimental: Eggs (0-24 h old) were placed in 24-well microtiter plate on artificial diet and treated with test solutions at an application rate of 200 ppm (concentration in well 18 ppm) by pipetting. After an incubation period of 4 days, samples were checked for egg mortality, larval mortality, and growth regulation.

[3] = test system: Plutella xylostella; experiment: Plutella xylostella (diamond back moth) artificial diet test; settings: 144 h, 200 ppm (concentration in well 18 ppm), L2 larvae, 6 days, larval mortality, growth regulation
Experimental: 24-well microtiter plate (MTP) with artificial diet was treated with test solutions at an application rate of 200 ppm (concentration in well 18 ppm) by pipetting. After drying, the MTP's were infested with L2 larvae (7-12 per well). After an incubation period of 6 days, samples were checked for larval mortality and growth regulation.

[4] = test system: Diabrotica balteata; experiment: Diabrotica balteata (corn root worm) artificial diet test; settings: 120 h, 200 ppm (concentration in well 18 ppm), L2 larvae, 5 days, larval mortality, growth regulation
Experimental: A 24-well microtiter plate (MTP) with artificial diet was treated with test solutions at an application rate of 200 ppm (concentration in well 18 ppm) by pipetting. After drying, the MTP's were infested with L2 larvae (6-10 per well). After an incubation period of 5 days, samples were checked for larval mortality and growth regulation.

[5] = test system: Thrips tabaci; experiment: Thrips tabaci (onion thrips) leaf disc spray test; settings: foliar, 168 h, 200 ppm spray on sunflower leaf discs, mixed ages, 7 days, mortality
Experimental: [The procedure below names another target; the source lists this target under the same test.] Sunflower leaf discs were placed on agar in a 24-well microtiter plate and sprayed with test solutions at an application rate of 200 ppm. After drying, the leaf discs were infested with an […] population of mixed ages. After an incubation period of 7 days, samples were checked for mortality.

[6] = test system: Tetranychus urticae; experiment: Tetranychus urticae (two-spotted spider mite) leaf disc spray test; settings: foliar, 192 h, 200 ppm spray on bean leaf discs, mixed ages, 8 days, egg, larval and adult mortality
Source text: Bean leaf discs on agar in 24-well microtiter plates were sprayed with test solutions at an application rate of 200 ppm. After drying, the leaf discs are infested with mite populations of mixed ages. 8 days later, discs are checked for egg mortality, larval mortality, and adult mortality.

Measured: pest or weed control at 200 ppm

Cc1cc(C2=NOC(c3cc(Cl)cc(Cl)c3)(C(F)(F)F)C2)ccc1C(=O)NC1CSSC1 (centres unmarked) [Compound A1, 4-[5-(3,5-Dichloro-phenyl)-5-trifluoromethyl-4,5-dihydro-isoxazol-3-yl]-N-[1,2]dithiolan-4-yl-2-methyl-benzamide]
not listed: [6]
≥ 80%: all other assays above

Cc1cc(C2=NOC(c3cc(Cl)cc(Cl)c3)(C(F)(F)F)C2)ccc1C(=O)N[C@@H]1CONC1=O (stereo partly drawn) [Compound B1, 4-[5-(3,5-Dichloro-phenyl)-5-trifluoromethyl-4,5-dihydro-isoxazol-3-yl]-2-methyl-N-((R)-3-oxo-isoxazolidin-4-yl)-benzamide]
≥ 80%: [1] | [2] | [3] | [6]

Cc1cc(C2=NOC(c3cc(Cl)cc(Cl)c3)(C(F)(F)F)C2)ccc1C(=O)N[C@@H]1CON(Cc2ccccc2)C1=O (stereo partly drawn) [Compound B4, 4-[5-(3,5-Dichloro-phenyl)-5-trifluoromethyl-4,5-dihydro-isoxazol-3-yl]-2-methyl-N-((R)-2-benzyl-3-oxo-isoxazolidin-4-yl)-benzamide]
≥ 80%: all assays above

Cc1cc(C2=NOC(c3cc(Cl)cc(Cl)c3)(C(F)(F)F)C2)ccc1C(=O)N[C@@H]1CON(CCO)C1=O (stereo partly drawn) [Compound B9, 4-[5-(3,5-Dichloro-phenyl)-5-trifluoromethyl-4,5-dihydro-isoxazol-3-yl]-2-methyl-N-((R)-2-(2-hydroxy-ethyl)-3-oxo-isoxazolidin-4-yl)-benzamide]
≥ 80%: all assays above

Cc1cc(C2=NOC(c3cc(Cl)cc(Cl)c3)(C(F)(F)F)C2)ccc1C(=O)N[C@@H]1CON(C2CSC2)C1=O (stereo partly drawn) [Compound B10, 4-[5-(3,5-Dichloro-phenyl)-5-trifluoromethyl-4,5-dihydro-isoxazol-3-yl]-2-methyl-N-((R)-2-(thietan-3-yl)-3-oxo-isoxazolidin-4-yl)-benzamide]
≥ 80%: all assays above

COc1ccc(N2CCC(CNC(=O)c3ccc(C4=NOC(c5cc(Cl)cc(Cl)c5)(C(F)(F)F)C4)cc3C)S2(=O)=O)cc1 (centres unmarked) [Compound F6, 4-[5-(3,5-Dichloro-phenyl)-5-trifluoromethyl-4,5-dihydro-isoxazol-3-yl]-N-[2-(4-methoxy-phenyl)-1,1-dioxo-1 lambda*6*-isothiazolidin-5-ylmethyl]-2-methyl-benzamide]
not listed: [5]
≥ 80%: all other assays above
